# Measured values: publication PMC7059793, “Novel Chemical Scaffolds to Inhibit the Neutral Amino Acid Transporter B^0AT1 (SLC6A19), a Potential Target to Treat Metabolic Diseases” (Frontiers in Pharmacology, 2020)
# Legend:
# Format in all cases: cell-based
# [1] = molecular target: T1, LAT1 (Homo sapiens, UniProt Q01650); assay: Na+-independent [14C]leucine uptake in 143B cells; conditions: inhibitor at 10 μM and 50 μM
# T1 construct: endogenous in cells; host or cells: 143B TK- cells (human osteosarcoma)
# T1 sequence (Q01650 whole entry): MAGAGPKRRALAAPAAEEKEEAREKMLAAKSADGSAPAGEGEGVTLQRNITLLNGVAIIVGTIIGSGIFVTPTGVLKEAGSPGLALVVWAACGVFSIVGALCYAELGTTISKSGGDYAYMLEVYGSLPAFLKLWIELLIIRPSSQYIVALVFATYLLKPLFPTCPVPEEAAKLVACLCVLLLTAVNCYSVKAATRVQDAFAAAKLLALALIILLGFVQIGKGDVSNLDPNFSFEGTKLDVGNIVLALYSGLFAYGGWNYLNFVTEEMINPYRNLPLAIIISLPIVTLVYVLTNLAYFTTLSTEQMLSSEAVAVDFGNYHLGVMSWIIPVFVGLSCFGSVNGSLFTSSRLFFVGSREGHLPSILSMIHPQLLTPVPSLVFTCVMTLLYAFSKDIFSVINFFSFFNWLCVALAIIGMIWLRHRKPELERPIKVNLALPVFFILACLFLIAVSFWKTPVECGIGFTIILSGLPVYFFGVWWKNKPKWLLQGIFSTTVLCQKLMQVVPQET
# T1 sequence (P08195 102-630 partner): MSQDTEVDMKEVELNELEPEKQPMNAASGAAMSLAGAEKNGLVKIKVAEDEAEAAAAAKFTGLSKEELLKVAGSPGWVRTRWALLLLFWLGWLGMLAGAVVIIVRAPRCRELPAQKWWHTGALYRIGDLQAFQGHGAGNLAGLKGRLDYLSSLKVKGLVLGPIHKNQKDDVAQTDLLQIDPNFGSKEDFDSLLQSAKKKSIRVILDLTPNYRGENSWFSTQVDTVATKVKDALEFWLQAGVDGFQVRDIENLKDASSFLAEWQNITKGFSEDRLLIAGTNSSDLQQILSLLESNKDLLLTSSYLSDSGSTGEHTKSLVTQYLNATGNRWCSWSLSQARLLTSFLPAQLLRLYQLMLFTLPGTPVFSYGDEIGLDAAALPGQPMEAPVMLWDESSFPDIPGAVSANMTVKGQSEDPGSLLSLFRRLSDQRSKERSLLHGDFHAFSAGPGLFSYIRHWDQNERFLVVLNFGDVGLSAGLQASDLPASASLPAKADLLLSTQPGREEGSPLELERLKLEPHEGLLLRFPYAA
# Procedure: (§1) CHO-BC cells with passage numbers from 3 to 10 were used in radio-labelled uptake assays. Before the assay, the cells were seeded out in 35 mm dishes (Corning) and maintained for 48–72 h until reaching 80–90% confluence. To initiate transport, the culture medium was removed and the cells washed three times with HBSS + G. Subsequently, cells were incubated with HBSS + G, radiolabelled substrates (150 μM L-[U-^14C]leucine or 150 μM L-[U-^14C]isoleucine) and inhibitors as indicated in the figures or table in a 37°C water bath for 6 min. To terminate transport, cells were washed three times with ice-cold HBSS pH 7.5. For measuring sodium-independent uptake, NaCl in Hank’s buffer was replaced by NMDG-Cl. Cells were then harvested by homogenizing with 500 µl of 0.1 M HCl. An aliquot of 400 µl was used for scintillation counting and the remainder for protein quantification. To investigate inhibition of ASCT2, uptake of 100 μM [^14C]glutamine was measured in 143B cells in the absence and presence of inhibitor (at 10 μM and 50 μM). To measure inhibition of LAT1, uptake of [^14C]leucine was measured in HBSS + G in which NaCl was replaced by NMDG-Cl in 143B cells in the absence and presence of inhibitor (at 10 μM and 50 μM).
# (§2) To investigate the specificity of the compounds further, we tested them in human 143B osteosarcoma cells, which we have extensively characterised previously and used for pharmacological analysis ([Broer et al., 2018]). Na^+-dependent glutamine transport in 143B cells is largely mediated by ASCT2 (SLC1A5). Na^+-independent transport of leucine, by contrast, is mediated entirely by LAT1.
# [2] = molecular target: T2, ASCT2 (SLC1A5) (Homo sapiens, UniProt Q15758); assay: Na+-dependent [14C]glutamine uptake in 143B cells; conditions: inhibitor at 10 μM and 50 μM, 100 μM [14C]glutamine
# T2 construct: endogenous in cells; host or cells: 143B TK- cells (human osteosarcoma)
# T2 sequence (Q15758 1-541): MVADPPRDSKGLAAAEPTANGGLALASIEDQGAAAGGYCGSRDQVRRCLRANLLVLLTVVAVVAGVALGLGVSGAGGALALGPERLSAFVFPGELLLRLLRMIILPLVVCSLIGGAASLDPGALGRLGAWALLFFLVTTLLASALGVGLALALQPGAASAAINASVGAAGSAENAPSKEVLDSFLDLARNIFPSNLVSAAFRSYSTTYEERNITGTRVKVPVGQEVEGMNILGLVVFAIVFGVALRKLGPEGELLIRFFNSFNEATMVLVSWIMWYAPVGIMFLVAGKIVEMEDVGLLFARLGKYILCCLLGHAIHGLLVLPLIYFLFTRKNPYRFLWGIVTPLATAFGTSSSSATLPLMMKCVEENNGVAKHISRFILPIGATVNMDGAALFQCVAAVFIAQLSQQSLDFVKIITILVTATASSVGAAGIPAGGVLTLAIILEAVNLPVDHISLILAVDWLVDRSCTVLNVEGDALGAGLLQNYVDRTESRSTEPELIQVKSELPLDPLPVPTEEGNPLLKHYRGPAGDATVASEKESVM
# Procedure: as §1, §2
# [3] = molecular target: T3, B^0AT1 (Homo sapiens, UniProt Q695T7); assay: FLIPR assay with inhibitors alone in the absence of substrate (substrate test) in CHO-BC cells; conditions: 30 μM, baseline 100 RFU
# T3 construct: expressed in transfected cells
# T3 sequence (Q695T7 1-634): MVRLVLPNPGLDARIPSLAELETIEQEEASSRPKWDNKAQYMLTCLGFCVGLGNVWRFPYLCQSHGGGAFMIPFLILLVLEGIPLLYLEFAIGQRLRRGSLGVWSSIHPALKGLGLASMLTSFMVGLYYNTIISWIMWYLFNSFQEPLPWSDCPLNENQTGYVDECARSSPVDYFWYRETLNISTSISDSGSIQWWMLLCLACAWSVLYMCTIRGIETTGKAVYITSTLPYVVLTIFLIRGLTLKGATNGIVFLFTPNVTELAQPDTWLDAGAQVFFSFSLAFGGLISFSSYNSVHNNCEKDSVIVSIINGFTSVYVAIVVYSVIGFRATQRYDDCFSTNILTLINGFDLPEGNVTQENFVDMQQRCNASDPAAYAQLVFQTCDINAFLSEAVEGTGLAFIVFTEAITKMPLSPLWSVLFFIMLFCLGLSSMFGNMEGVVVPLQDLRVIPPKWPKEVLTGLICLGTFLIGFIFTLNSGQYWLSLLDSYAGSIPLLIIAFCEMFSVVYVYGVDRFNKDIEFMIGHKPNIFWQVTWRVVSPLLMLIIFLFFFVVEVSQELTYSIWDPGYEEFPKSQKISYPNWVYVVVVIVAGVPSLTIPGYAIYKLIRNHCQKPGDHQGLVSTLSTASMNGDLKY
# T3 sequence (Q9HBJ8 15-222 partner): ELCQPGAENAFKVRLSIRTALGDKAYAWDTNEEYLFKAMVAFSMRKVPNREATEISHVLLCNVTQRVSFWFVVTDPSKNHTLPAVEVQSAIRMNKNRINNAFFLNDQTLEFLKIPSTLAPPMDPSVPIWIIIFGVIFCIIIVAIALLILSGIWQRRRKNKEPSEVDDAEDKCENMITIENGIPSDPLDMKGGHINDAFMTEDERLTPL
# Procedure: Membrane depolarisation induced by amino acid transport was monitored using a FLIPR® kit (Molecular Devices, R8042 BLUE DYE). Before the assay, CHO-BC cells were seeded out at a density of 60,000 cells/well and maintained in a flat transparent bottom 96-well plate (Corning) overnight. After washing three times with Hank’s balanced salt solution (136.6 mM NaCl, 5.4 mM KCl, 0.44 mM KH2PO4, 2.7mM Na2HPO4, 1.26mM CaCl2, 0.5mM MgCl2, 0.4 mM MgSO4, 10mM HEPES, pH 7.5, supplemented with 5 mM glucose, abbreviated HBSS + G), cells in each well were incubated for 30 min at room temperature in 50 µl of HBSS pH 7.5 containing 5 mM glucose and compounds as indicated, together with 50 µl of dye-loading buffer provided with the kit. […] Fluorescence was detected at room temperature using a PerkinElmer multimode Plate Reader, with an excitation wavelength of 530 nm and emission wavelength of 565 nm.
# Figure 6 Specificity and efficacy of B^0AT1 inhibitors. […] Although structurally unrelated to the substrates of the transporter, compounds E4, E18, and CB3 are highly specific.
Structure (SMILES),Inhibition of Na+-independent leucine uptake (LAT1) [1],Inhibition of Na+-dependent glutamine uptake (ASCT2) [2],Fluorescence signal when tested alone (no substrate) [3]
Cc1cc(C(=O)Nc2ccc(Cl)cc2C(F)(F)F)no1 [CB3],failed to inhibit,failed to inhibit,did not increase fluorescence above the baseline
Cc1cc(OCC(=O)NC(C)C)cc(C)c1Cl [Compound E4],failed to inhibit,failed to inhibit,did not increase fluorescence above the baseline
COc1ccccc1Nc1nc2ccccc2s1 [Compound E18],failed to inhibit,failed to inhibit,did not increase fluorescence above the baseline
